Experiments:
[1] = Plasma IAsp exposure during 8-hour euglycemic clamp; type: in vivo, human; conditions: healthy subjects, 0.2 IU/kg s.c., group A (basal BG < 4.00 mmol/L, target BG 2.5% below baseline), before PSM, n = 15, LC-MS/MS, trapezoidal, mean ± SD
blood glucose = test: Euglycemic clamp, glucose infusion rate; type: in vivo, human; conditions: healthy subjects, 0.2 IU/kg s.c., 8-hour euglycemic clamp, 20% dextrose, group A (target BG 2.5% below baseline), n = 15, mean ± SD

In the case of insulin aspart [IAsp], the “AUCIAsp, 0-8 h” value [1] is reported as 566 ± 51 ng·h/mL, the “AUCGIR, 0-8 h” value (blood glucose; after PSM) is reported as 1433 ± 400 mg/kg and the “AUCGIR, 0-8 h” value (blood glucose; before PSM) is reported as 1433 ± 400 mg/kg.
